According to publication PMC8421406, “C9orf72-derived arginine-rich poly-dipeptides impede phase modifiers” (Nature Communications, 2021):
Where no end group is shown, it is not given here. HA = HA epitope tag

Tested on: GFP:cNLS:TDP43-LC / mCh:TDP43-LC hydrogel
Assay: Hydrogel binding assay, TDP43-LC with Impα/β1
Assay type: biochemical
Details: 1.0 µM GFP:cNLS:TDP43-LC, Impα/β1 1.0 µM/1.0 µM, PR20 1.0 µM
Source text: Expression plasmids for recombinant proteins (GFP/mCherry fusion LC-domain of FUS (residue 2–214, GFP/mCh:FUS-LC) and GFP/mCherry fusion LC-domain of hnRNPA2 (residue 181–341, GFP/mCh:hnRNPA2-LC)) were obtained from the Steven L. McKnight Laboratory. Expression plasmid for GFP:FUS-LC fusion NLS (residue 501–526, GFP:FUS-LC:NLS), mCh fusion LC-domain of TDP43 (residue 262–414, mCh:TDP43-LC), and GFP-tagged cNLS (residue 78–99) fusion TDP43-LC (GFP:cNLS:TDP43-LC) were constructed using In-Fusion HD Cloning Kit (Takara Bio, Inc.). GFP/mCh:FUS-LC, GFP:FUS-LC:NLS, and GFP/mCh:hnRNPA2-LC were expressed in E. coli BL21(DE3) cells with 0.5 mM IPTG at 20 °C overnight and purified by Ni-NTA Agarose (FUJIFILM Wako Pure Chemical Corporation), as described in a previous study. GFP:cNLS:TDP43-LC were expressed with 1.0 mM IPTG at 37 °C for 3 h and mCh:TDP43-LC were expressed with 0.5 mM IPTG at 16 °C overnight. GFP:cNLS:TDP43-LC and mCh:TDP43-LC were purified by Ni-NTA as described in a previous study[48] with some modifications. […] Relative intensity of GFP signals across the hydrogel droplets were measured in triplicate by using the profile plot mode in ImageJ. […]

PR20: twenty repeats of proline:arginine with an HA epitope tag at the C terminus, synthesized by SCRUM, Inc. (PRPRPRPRPRPRPRPRPRPRPRPRPRPRPRPRPRPRPRPR-{HA})
Effect on ability of Impα/β1 to modify phase transition of TDP43-LC: inhibited the ability of other NIRs Impα/β1 in modifying the phase transition of LC-domain of TDP43
